{"source": "PubChem BioAssay AID1259407", "about": "(Chemical Carcinogenesis Research Information System (CCRIS), 2018)", "tested_on": "CCRIS mutagenicity, Ames/micronucleus/aberration tests", "experiment": "CCRIS mutagenicity studies", "key": {"[1]": {"settings": "Test System: AMES SALMONELLA TYPHIMURIUM, Strain/Indicator: TA98, Metabolic Activation: NONE, Method: PREINCUBATION"}, "[2]": {"settings": "Test System: AMES SALMONELLA TYPHIMURIUM, Strain/Indicator: TA100, Metabolic Activation: NONE, Method: PREINCUBATION"}, "[3]": {"settings": "Test System: AMES SALMONELLA TYPHIMURIUM, Strain/Indicator: TA1535, Metabolic Activation: NONE, Method: PREINCUBATION"}, "[4]": {"settings": "Test System: AMES SALMONELLA TYPHIMURIUM, Strain/Indicator: TA98, Metabolic Activation: NONE, Method: STANDARD PLATE"}, "[5]": {"settings": "Test System: AMES SALMONELLA TYPHIMURIUM, Strain/Indicator: TA100, Metabolic Activation: NONE, Method: STANDARD PLATE"}, "[6]": {"settings": "Test System: AMES SALMONELLA TYPHIMURIUM, Strain/Indicator: TA1535, Metabolic Activation: NONE, Method: STANDARD PLATE"}}, "note": "Activity calls are given as the source filed them. The rule behind the calls is not given here.", "data": [{"smiles": "COc1cc2c(c(OC)c1CO)C(=O)c1ccccc1C2=O", "values": [{"measurement": "mutagenic call", "setting": "[1]", "value": "inactive; negative"}, {"measurement": "mutagenic call", "setting": "Test System: AMES SALMONELLA TYPHIMURIUM, Strain/Indicator: TA98, Metabolic Activation: RAT, LIVER, S-9, PCB, Method: PREINCUBATION", "value": "inactive; negative"}, {"measurement": "mutagenic call", "setting": "[2]", "value": "inactive; negative"}, {"measurement": "mutagenic call", "setting": "Test System: AMES SALMONELLA TYPHIMURIUM, Strain/Indicator: TA100, Metabolic Activation: RAT, LIVER, S-9, PCB, Method: PREINCUBATION", "value": "inactive; negative"}]}, {"smiles": "CCC(C)(C)c1ccc(O)cc1", "values": [{"measurement": "mutagenic call", "setting": "Test System: AMES SALMONELLA TYPHIMURIUM, Strain/Indicator: TA97, Metabolic Activation: HAMSTER, LIVER, S-9, AROCLOR 1254 (10%), Method: PREINCUBATION", "value": "inactive; negative"}, {"measurement": "mutagenic call", "setting": "Test System: AMES SALMONELLA TYPHIMURIUM, Strain/Indicator: TA97, Metabolic Activation: HAMSTER, LIVER, S-9, AROCLOR 1254 (30%), Method: PREINCUBATION", "value": "inactive; negative"}, {"measurement": "mutagenic call", "setting": "Test System: AMES SALMONELLA TYPHIMURIUM, Strain/Indicator: TA97, Metabolic Activation: NONE, Method: PREINCUBATION", "value": "inactive; negative"}, {"measurement": "mutagenic call", "setting": "Test System: AMES SALMONELLA TYPHIMURIUM, Strain/Indicator: TA97, Metabolic Activation: RAT, LIVER, S-9, AROCLOR 1254 (10%), Method: PREINCUBATION", "value": "inactive; negative"}, {"measurement": "mutagenic call", "setting": "Test System: AMES SALMONELLA TYPHIMURIUM, Strain/Indicator: TA97, Metabolic Activation: RAT, LIVER, S-9, AROCLOR 1254 (30%), Method: PREINCUBATION", "value": "inactive; negative"}, {"measurement": "mutagenic call", "setting": "Test System: AMES SALMONELLA TYPHIMURIUM, Strain/Indicator: TA98, Metabolic Activation: HAMSTER, LIVER, S-9, AROCLOR 1254 (10%), Method: PREINCUBATION", "value": "inactive; negative"}, {"measurement": "mutagenic call", "setting": "Test System: AMES SALMONELLA TYPHIMURIUM, Strain/Indicator: TA98, Metabolic Activation: HAMSTER, LIVER, S-9, AROCLOR 1254 (30%), Method: PREINCUBATION", "value": "inactive; negative"}, {"measurement": "mutagenic call", "setting": "[1]", "value": "inactive; negative"}, {"measurement": "mutagenic call", "setting": "Test System: AMES SALMONELLA TYPHIMURIUM, Strain/Indicator: TA98, Metabolic Activation: RAT, LIVER, S-9, AROCLOR 1254 (10%), Method: PREINCUBATION", "value": "inactive; negative"}, {"measurement": "mutagenic call", "setting": "Test System: AMES SALMONELLA TYPHIMURIUM, Strain/Indicator: TA98, Metabolic Activation: RAT, LIVER, S-9, AROCLOR 1254 (30%), Method: PREINCUBATION", "value": "inactive; negative"}, {"measurement": "mutagenic call", "setting": "Test System: AMES SALMONELLA TYPHIMURIUM, Strain/Indicator: TA100, Metabolic Activation: HAMSTER, LIVER, S-9, AROCLOR 1254 (10%), Method: PREINCUBATION", "value": "inactive; negative"}, {"measurement": "mutagenic call", "setting": "Test System: AMES SALMONELLA TYPHIMURIUM, Strain/Indicator: TA100, Metabolic Activation: HAMSTER, LIVER, S-9, AROCLOR 1254 (30%), Method: PREINCUBATION", "value": "inactive; negative"}, {"measurement": "mutagenic call", "setting": "[2]", "value": "inactive; negative"}, {"measurement": "mutagenic call", "setting": "Test System: AMES SALMONELLA TYPHIMURIUM, Strain/Indicator: TA100, Metabolic Activation: RAT, LIVER, S-9, AROCLOR 1254 (10%), Method: PREINCUBATION", "value": "inactive; negative"}, {"measurement": "mutagenic call", "setting": "Test System: AMES SALMONELLA TYPHIMURIUM, Strain/Indicator: TA100, Metabolic Activation: RAT, LIVER, S-9, AROCLOR 1254 (30%), Method: PREINCUBATION", "value": "inactive; negative"}, {"measurement": "mutagenic call", "setting": "Test System: AMES SALMONELLA TYPHIMURIUM, Strain/Indicator: TA1535, Metabolic Activation: HAMSTER, LIVER, S-9, AROCLOR 1254 (10%), Method: PREINCUBATION", "value": "inactive; negative"}, {"measurement": "mutagenic call", "setting": "Test System: AMES SALMONELLA TYPHIMURIUM, Strain/Indicator: TA1535, Metabolic Activation: HAMSTER, LIVER, S-9, AROCLOR 1254 (30%), Method: PREINCUBATION", "value": "inactive; negative"}, {"measurement": "mutagenic call", "setting": "[3]", "value": "inactive; negative"}, {"measurement": "mutagenic call", "setting": "Test System: AMES SALMONELLA TYPHIMURIUM, Strain/Indicator: TA1535, Metabolic Activation: RAT, LIVER, S-9, AROCLOR 1254 (10%), Method: PREINCUBATION", "value": "inactive; negative"}, {"measurement": "mutagenic call", "setting": "Test System: AMES SALMONELLA TYPHIMURIUM, Strain/Indicator: TA1535, Metabolic Activation: RAT, LIVER, S-9, AROCLOR 1254 (30%), Method: PREINCUBATION", "value": "inactive; negative"}]}, {"smiles": "O=c1cc(-c2ccccc2)cc(-c2ccccc2)n1/N=C/c1ccc([N+](=O)[O-])o1", "values": [{"measurement": "mutagenic call", "setting": "Test System: AMES SALMONELLA TYPHIMURIUM, Strain/Indicator: TA97, Metabolic Activation: NONE, Method: STANDARD PLATE", "value": "inactive; negative"}, {"measurement": "mutagenic call", "setting": "[4]", "value": "inactive; negative"}, {"measurement": "mutagenic call", "setting": "[5]", "value": "active; positive"}, {"measurement": "mutagenic call", "setting": "Test System: AMES SALMONELLA TYPHIMURIUM, Strain/Indicator: TA102, Metabolic Activation: NONE, Method: STANDARD PLATE", "value": "inactive; negative"}]}, {"smiles": "NC(=O)c1cc[n+](COC[n+]2ccccc2/C=N/O)cc1", "values": [{"measurement": "mutagenic call", "setting": "[4]", "value": "inactive; negative"}, {"measurement": "mutagenic call", "setting": "Test System: AMES SALMONELLA TYPHIMURIUM, Strain/Indicator: TA98, Metabolic Activation: RAT, LIVER, S-9, Method: STANDARD PLATE", "value": "inactive; negative"}, {"measurement": "mutagenic call", "setting": "[5]", "value": "inactive; negative"}, {"measurement": "mutagenic call", "setting": "Test System: AMES SALMONELLA TYPHIMURIUM, Strain/Indicator: TA100, Metabolic Activation: RAT, LIVER, S-9, Method: STANDARD PLATE", "value": "inactive; negative"}, {"measurement": "mutagenic call", "setting": "[6]", "value": "inactive; negative"}, {"measurement": "mutagenic call", "setting": "Test System: AMES SALMONELLA TYPHIMURIUM, Strain/Indicator: TA1535, Metabolic Activation: RAT, LIVER, S-9, Method: STANDARD PLATE", "value": "inactive; negative"}, {"measurement": "mutagenic call", "setting": "Test System: AMES SALMONELLA TYPHIMURIUM, Strain/Indicator: TA1537, Metabolic Activation: NONE, Method: STANDARD PLATE", "value": "inactive; negative"}, {"measurement": "mutagenic call", "setting": "Test System: AMES SALMONELLA TYPHIMURIUM, Strain/Indicator: TA1537, Metabolic Activation: RAT, LIVER, S-9, Method: STANDARD PLATE", "value": "inactive; negative"}, {"measurement": "mutagenic call", "setting": "Test System: AMES SALMONELLA TYPHIMURIUM, Strain/Indicator: TA1538, Metabolic Activation: NONE, Method: STANDARD PLATE", "value": "inactive; negative"}, {"measurement": "mutagenic call", "setting": "Test System: AMES SALMONELLA TYPHIMURIUM, Strain/Indicator: TA1538, Metabolic Activation: RAT, LIVER, S-9, Method: STANDARD PLATE", "value": "inactive; negative"}, {"measurement": "mutagenic call", "setting": "Test System: CHINESE HAMSTER OVARY, Strain/Indicator: CHO-K1-BH4 (HGPRT)/6-THIOGUANINE, Metabolic Activation: NONE", "value": "inactive; negative"}, {"measurement": "mutagenic call", "setting": "Test System: CHINESE HAMSTER OVARY, Strain/Indicator: CHO-K1-BH4 (HGPRT)/6-THIOGUANINE, Metabolic Activation: RAT, LIVER, S-9, Method: SUSPENSION/PLATE", "value": "inactive; negative"}, {"measurement": "mutagenic call", "setting": "Test System: MOUSE LYMPHOMA, Strain/Indicator: L5178Y (TK+/TK-), Metabolic Activation: NONE, Method: SUSPENSION/PLATE", "value": "inactive; negative"}]}, {"smiles": "CCCCCCN(N=O)/C(N)=N/[N+](=O)[O-]", "values": [{"measurement": "mutagenic call", "setting": "[6]", "value": "active; positive"}]}, {"smiles": "Sc1ccccc1", "values": [{"measurement": "mutagenic call", "setting": "[1]", "value": "inactive; negative"}, {"measurement": "mutagenic call", "setting": "Test System: AMES SALMONELLA TYPHIMURIUM, Strain/Indicator: TA98, Metabolic Activation: RAT LIVER S-9, PHENOBARBITAL AND BETA-NAPHTHOFLAVONE, Method: PREINCUBATION", "value": "inactive; negative"}, {"measurement": "mutagenic call", "setting": "[2]", "value": "inactive; negative"}, {"measurement": "mutagenic call", "setting": "Test System: AMES SALMONELLA TYPHIMURIUM, Strain/Indicator: TA100, Metabolic Activation: RAT LIVER S-9, PHENOBARBITAL AND BETA-NAPHTHOFLAVONE, Method: PREINCUBATION", "value": "inactive; negative"}, {"measurement": "mutagenic call", "setting": "[3]", "value": "inactive; negative"}, {"measurement": "mutagenic call", "setting": "Test System: AMES SALMONELLA TYPHIMURIUM, Strain/Indicator: TA1535, Metabolic Activation: RAT LIVER S-9, PHENOBARBITAL AND BETA-NAPHTHOFLAVONE, Method: PREINCUBATION", "value": "inactive; negative"}, {"measurement": "mutagenic call", "setting": "Test System: AMES SALMONELLA TYPHIMURIUM, Strain/Indicator: TA1537, Metabolic Activation: NONE, Method: PREINCUBATION", "value": "inactive; negative"}, {"measurement": "mutagenic call", "setting": "Test System: AMES SALMONELLA TYPHIMURIUM, Strain/Indicator: TA1537, Metabolic Activation: RAT LIVER S-9, PHENOBARBITAL AND BETA-NAPHTHOFLAVONE, Method: PREINCUBATION", "value": "inactive; negative"}, {"measurement": "mutagenic call", "setting": "Test System: AMES SALMONELLA TYPHIMURIUM, Strain/Indicator: TA1538, Metabolic Activation: NONE, Method: PREINCUBATION", "value": "inactive; negative"}, {"measurement": "mutagenic call", "setting": "Test System: AMES SALMONELLA TYPHIMURIUM, Strain/Indicator: TA1538, Metabolic Activation: RAT LIVER S-9, PHENOBARBITAL AND BETA-NAPHTHOFLAVONE, Method: PREINCUBATION", "value": "inactive; negative"}, {"measurement": "mutagenic call", "setting": "Test System: E.COLI, Strain/Indicator: WP2UVRA, Metabolic Activation: NONE, Method: PREINCUBATION", "value": "active; positive"}, {"measurement": "mutagenic call", "setting": "Test System: E.COLI, Strain/Indicator: WP2UVRA, Metabolic Activation: RAT LIVER S-9, PHENOBARBITAL AND BETA-NAPHTHOFLAVONE, Method: PREINCUBATION", "value": "inactive; negative"}]}]}
